Like-named read-outs stand apart in the source and are kept apart here. Values belong to the molecule of their own block, whether it stands above or below them.
Columns and labels:
[1] = Solubility of hydrophobic drugs in water versus concentration in nanoparticles; assay type: physicochemical; conditions: nanoparticles of Example 9 / Example 10
[2] = tested on: HCC1806 tumor (triple-negative breast cancer); assay: Tumor growth in HCC1806 tumor inoculated mice; assay type: in vivo; conditions: 100 mg LND/kg in tris-glycine buffer, intraperitoneal injection
[3] = cited from earlier work
[4] = Solubility of peptides at pH 7.4 and 6.5 (Example 13); assay type: physicochemical
Source text: Five pH sensitive peptides of the following sequences, […] (SEQ ID NO: 17), […] (SEQ ID NO: 18), […] (SEQ ID NO: 19), […] (SEQ ID NO: 20) and […] (SEQ ID NO: 8) were similarly synthesized by the method described in Example (1). Peptides […] (SEQ ID NO: 17) and […] (SEQ ID NO: 18) were soluble at both pH 7.4 and 6.5. Peptides […] (SEQ ID NO: 19) and […] (SEQ ID NO: 20) were insoluble at both pH 7.4 and 6.5, with […] (SEQ ID NO: 20) forming nanoparticles of about 80 nm. Peptide […] (SEQ ID NO: 8) was insoluble above about pH 6.7 forming nanoparticles of about 50 nm and soluble below about pH6.7; i.e., it undergoes a pH-induced transition at about pH6.7. Therefore, the pH ranges of the hydrophobic/hydrophilic transition and the corresponding soluble/insoluble transition of peptides and their nanoparticles may be adjusted by changing one or more features of the peptide, e.g., sequence and length, and the hydrophobic block and the functional block to which the peptide is conjugated.

[5] = Solubility of peptide nanoparticles as a function of pH (Example 1, FIG. 1B); assay type: physicochemical; conditions: phosphate buffer solution
Source text: A pH sensitive peptide (Ac-[…]-NH2) (SEQ ID NO: 9) was synthesized by the solid phase method. Amino acids blocked by the fluorinylmethyloxycarbonyl (FMOC) group were utilized to couple to a Rink amide resin. Piperideine, N-methylmorpholine (NMM), and hexafluorophosphate (HBTU) in dimethylformamide were used to remove the FMOC group and activate amino acids. The peptide was acetylated with acetic anhydride at the N-terminus and cleaved with trifluoroacetic acid/triisopropylsilane/water (95%/2.5%/2.5%). […] Such peptide spontaneously forms nanoparticles at pH 7.4. The solubility of nanoparticles was measured as a function of pH. […] Therefore, there is a sharp transition spanning over a pH interval of only 0.1. The increasing solubility at lower pH is believed to be due to the increasing protonation of the histidine group.

[6] = tested on: SKOV3 cells; assay: Cytotoxicity by lactic dehydrogenase (LDH) assay; assay type: cell-based, human; conditions: control set as zero
Description: (§1) FIGS. 4A and 4B show lack of cytotoxicity of a pH sensitive peptide solution for SKOV3 cells.
(§2) Cytotoxicity, i.e., the effect of peptide on tumor cell viability, was determined using lactic dehydrogenase (LDH) assay. Cells (SKOV3 cells, a human carcinogenic cell line from ovarian cancer) were plated in 96-well plates (10,000 per well for SKOV3) and allowed to adhere overnight at 37° C. in a humidified atmosphere of 5% CO2. […] The medium was next removed, the LDH assay lysis solution was added, and the wells were kept at 37° C. for another 45 minutes. Finally, the LDH assay mixture was added and the wells were held at room temperature for still another 20-30 minutes before the absorbance was spectrophotometrically measured at a wavelength of 490 nm on a SpectraMax (Molecular Devices). […] This was confirmed by the spectrophotometric intensity of dead cells, shown in the lower panel, which was near zero, meaning it is indistinguishable from that of the control. Therefore, the peptide itself is non-toxic and biocompatible.

[7] = Cytotoxicity by lactic dehydrogenase (LDH) assay; assay type: cell-based, human; conditions: human, SKOV3 cells, read-out: cell viability
Description: as §1, §2

Molecule: O=C(O)c1nn(Cc2ccc(Cl)cc2Cl)c2ccccc12 [LND, lonidamine]
concentration of drug in pH-sensitive peptide nanoparticle preparation [1]: 1 mg/ml | duration of tumor growth delay effect compared to control [2]: about 10 days | solubility in water [3]: about 17 μg/ml

Molecule: CC(=O)O[C@H]1C(=O)[C@@]2(C)[C@H]([C@H](OC(=O)c3ccccc3)[C@]3(O)C[C@H](OC(=O)[C@H](O)[C@@H](NC(=O)c4ccccc4)c4ccccc4)C(C)=C1C3(C)C)[C@]1(OC(C)=O)CO[C@@H]1C[C@@H]2O [paclitaxel]
concentration of drug in pH-sensitive peptide nanoparticle preparation [1]: 1 mg/ml | solubility in water [3]: about 0.3 μg/ml

Molecule: Ac-HFFHGHFFHGHFFHGKK-NH2
solubility of peptide and nanoparticle ([5]; above pH 7.2): completely insoluble | solubility of peptide and nanoparticle ([5]; at pH 7.0): mostly insoluble | solubility of peptide and nanoparticle ([5]; below pH 6.7): completely soluble | solubility of peptide and nanoparticle ([5]; below pH 6.9): mostly soluble | pH interval spanned by the sharp solubility transition [5]: 0.1 | pH of sudden fall indicating dissolution of peptide construct from nanoparticle ([5]; FIG. 1B): 6.9 | spectrophotometric intensity of dead cells (LDH release) [6]: near zero | viability at 3 h ([7]; pH 6.8, 3 hours with peptide then 24 hours): ~100% | viability at 3 h ([7]; pH 7.4, 3 hours with peptide then 24 hours): ~100%

Molecule: Ac-KGGHFFHGHFFHGK-NH2
solubility of peptide ([4]; pH 6.5): soluble | solubility of peptide ([4]; pH 7.4): soluble

Now from value to molecule:

solubility of peptide ([4]; pH 6.5): insoluble | solubility of peptide ([4]; pH 7.4): insoluble
Molecule: Ac-GFFFHGFFFH-NH2

solubility of peptide ([4]; pH 6.5): insoluble | solubility of peptide ([4]; pH 7.4): insoluble
Molecule: Ac-GHFFHGFFFH-NH2

solubility of peptide ([4]; pH 6.5): soluble | solubility of peptide ([4]; pH 7.4): soluble
Molecule: Ac-GHFFHGHFFH-NH2

Source: patent US10058622B2, “PH-sensitive peptides and their nanoparticles for drug delivery” (THE TRUSTEES OF THE UNIVERSITY OF PENNSYLVANIA, priority 2013, dated 2018)
